Experimental data as given in ChEMBL document CHEMBL1201862, “PubChem BioAssay data set” (2004).
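Five compound concentrations were applied to cells in 96-well plates for 48 hours; endpoints were derived by simple linear interpolation of the resulting dose-response curve. The concentration for 50% growth inhibition is given as GI50.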 The source made the active and inactive calls. Cut-off read from the data, not from the text of the source: active = GI50 up to about 1.1 µM and inactive = higher. Non-standard residues stand in square brackets, D forms with d. Residues, ends and D or L forms follow the SMILES beside them. *: point of attachment. Ac5c = NC1(C(=O)O)CCCC1; Cbz = O=C(OCc1ccccc1)*; Boc = CC(C)(C)OC(=O)*; tBu = CC(C)(C)*

Tests used:
Experiment in all cases: NCI tumour cell line growth inhibition, 48 h
[1] = system: MOLT-4
[2] = system: MDA-N
[3] = system: SN12C
[4] = system: NCI-H23
[5] = system: OVCAR-3
[6] = system: A498
[7] = system: MDA-MB-435
[8] = system: M14
[9] = system: SF-268
[10] = system: SK-OV-3
[11] = system: MCF7
[12] = system: U-251
[13] = system: NCI/ADR-RES
[14] = system: HCT-116
[15] = system: SNB-75
[16] = system: COLO 205
[17] = system: SK-MEL-5
[18] = system: HCT-15
[19] = system: SK-MEL-28
[20] = system: OVCAR-8

SMILES	GI50 [1]	GI50 [2]	GI50 [3]	GI50 [4]	GI50 [5]	GI50 [6]	GI50 [7]	GI50 [8]	GI50 [9]	GI50 [10]	GI50 [11]	GI50 [12]	GI50 [13]	GI50 [14]	GI50 [15]	GI50 [16]	GI50 [17]	GI50 [18] [µM]	GI50 [19]	GI50 [20]
O=C(NCCCCCCCCNC(=O)c1cccc2ccccc12)c1cccc2ccccc12	> 100 µM (inactive)	> 100 µM (inactive)	18.8 µM (inactive)	23.6 µM (inactive)	16.7 µM (inactive)	17.1 µM (inactive)	> 100 µM (inactive)	34.4 µM (inactive)	9.93 µM (inactive)	10.7 µM (inactive)	71.4 µM (inactive)	12.5 µM (inactive)	28.3 µM (inactive)	24.4 µM (inactive)	4.61 µM (inactive)	55.1 µM (inactive)	> 92.9 µM (inactive)	97.5	> 59 µM (inactive)	9.91 µM (inactive)
CCN(CC)C(=O)CCN1CC1	> 10 µM (inactive)	> 10 µM (inactive)	> 10 µM (inactive)	> 10 µM (inactive)	> 10 µM (inactive)	> 10 µM (inactive)	> 10 µM (inactive)	> 10 µM (inactive)	> 10 µM (inactive)	> 10 µM (inactive)	> 10 µM (inactive)	> 10 µM (inactive)	> 10 µM (inactive)	> 10 µM (inactive)	> 10 µM (inactive)	> 10 µM (inactive)	> 10 µM (inactive)	> 10	> 10 µM (inactive)	> 10 µM (inactive)
O=S(=O)(Cc1nc2ccccc2s1)c1nc2ccccc2s1	17.6 µM (inactive)	15.5 µM (inactive)	16.8 µM (inactive)	15.6 µM (inactive)	14.4 µM (inactive)	19.2 µM (inactive)	15.2 µM (inactive)	13 µM (inactive)	15.6 µM (inactive)	37 µM (inactive)	18.7 µM (inactive)	18.5 µM (inactive)	43.2 µM (inactive)	13.9 µM (inactive)	18.3 µM (inactive)	17.9 µM (inactive)	12.9 µM (inactive)	16.3	15.6 µM (inactive)	19.4 µM (inactive)
CC1CC(C)(O)CC(C(O)CC2CC(=O)NC(=O)C2)C1=O (stereo unspecified) [RESACTIN A]	0.0151 µM (active)	0.0372 µM (active)	0.0202 µM (active)	0.0413 µM (active)	0.0566 µM (active)	0.067 µM (active)	0.0432 µM (active)	0.034 µM (active)	0.0455 µM (active)	0.0818 µM (active)	0.0379 µM (active)	0.0313 µM (active)	0.232 µM (active)	0.0308 µM (active)	0.0225 µM (active)	0.0381 µM (active)	0.0132 µM (active)	0.0989	0.0478 µM (active)	0.0266 µM (active)
O=C1CC(Sc2nc3ccc(I)cc3c(=O)n2Cc2ccccc2)C(=O)NN1 (stereo unspecified)	14.3 µM (inactive)	18 µM (inactive)	14.5 µM (inactive)	15.7 µM (inactive)	16 µM (inactive)	12.7 µM (inactive)	17.7 µM (inactive)	19.6 µM (inactive)	15.9 µM (inactive)	16 µM (inactive)	15 µM (inactive)	15.9 µM (inactive)	20.2 µM (inactive)	15.7 µM (inactive)	11.7 µM (inactive)	19.1 µM (inactive)	16.2 µM (inactive)	15.5	17.9 µM (inactive)	14.4 µM (inactive)
COC(O)C(=O)c1c2c(cc3c1CCC3)CCCC2 (stereo unspecified)	3.38 µM (inactive)	13 µM (inactive)	4.66 µM (inactive)	10.7 µM (inactive)	4.65 µM (inactive)	13.5 µM (inactive)	17.4 µM (inactive)	10.2 µM (inactive)	15.2 µM (inactive)	12 µM (inactive)	5.27 µM (inactive)	14 µM (inactive)	14.7 µM (inactive)	2.02 µM (inactive)	8.17 µM (inactive)	6.62 µM (inactive)	4.47 µM (inactive)	4.25	9.48 µM (inactive)	7.87 µM (inactive)
NC12Oc3cc(O)cc(O)c3C1(c1ccc(Cl)cc1)c1c(O)cc(O)cc1O2 (stereo unspecified)	27.9 µM (inactive)	39.9 µM (inactive)	21.4 µM (inactive)	46.9 µM (inactive)	47.6 µM (inactive)	> 100 µM (inactive)	46.8 µM (inactive)	> 100 µM (inactive)	69 µM (inactive)	> 100 µM (inactive)	59.8 µM (inactive)	65.8 µM (inactive)	> 100 µM (inactive)	46 µM (inactive)	89.1 µM (inactive)	97.5 µM (inactive)	37.5 µM (inactive)	> 100	61.2 µM (inactive)	> 100 µM (inactive)
N#Cc1c(-c2ccc(Cl)cc2)cc(-c2nc3ccccc3[nH]2)nc1N	2.92 µM (inactive)	6.49 µM (inactive)	13.4 µM (inactive)	14.2 µM (inactive)	12.5 µM (inactive)	8.85 µM (inactive)	5.43 µM (inactive)	4.32 µM (inactive)	7.98 µM (inactive)	19.5 µM (inactive)	3.49 µM (inactive)	–	15 µM (inactive)	10.3 µM (inactive)	10.8 µM (inactive)	4.3 µM (inactive)	6.67 µM (inactive)	10.9	12.2 µM (inactive)	13 µM (inactive)
CC(=O)c1ccc(NCN2C(=O)c3ccccc3C2=O)cc1	> 100 µM (inactive)	> 100 µM (inactive)	> 100 µM (inactive)	> 100 µM (inactive)	> 100 µM (inactive)	> 100 µM (inactive)	> 100 µM (inactive)	> 100 µM (inactive)	> 100 µM (inactive)	> 100 µM (inactive)	> 100 µM (inactive)	> 100 µM (inactive)	> 100 µM (inactive)	> 100 µM (inactive)	30.5 µM (inactive)	> 100 µM (inactive)	> 100 µM (inactive)	> 100	> 100 µM (inactive)	> 100 µM (inactive)
COc1ccc2ccccc2c1/C=C/C(=O)c1ccccc1	2.84 µM (inactive)	2.94 µM (inactive)	2.88 µM (inactive)	2.6 µM (inactive)	2.32 µM (inactive)	3.56 µM (inactive)	2.53 µM (inactive)	3.13 µM (inactive)	2.7 µM (inactive)	3.62 µM (inactive)	3.25 µM (inactive)	1.95 µM (inactive)	3.01 µM (inactive)	2.99 µM (inactive)	1.08 µM (active)	3.25 µM (inactive)	4.19 µM (inactive)	2.9	5.96 µM (inactive)	2.33 µM (inactive)
COc1cc2c(cc1OC)C1C(O)C(OC)C(Br)C3(Br)CCN(C2)C13 (stereo unspecified)	54 µM (inactive)	> 100 µM (inactive)	> 100 µM (inactive)	> 100 µM (inactive)	> 100 µM (inactive)	> 100 µM (inactive)	> 100 µM (inactive)	> 100 µM (inactive)	9.04 µM (inactive)	> 100 µM (inactive)	> 100 µM (inactive)	47.1 µM (inactive)	> 100 µM (inactive)	> 100 µM (inactive)	78.9 µM (inactive)	> 100 µM (inactive)	> 100 µM (inactive)	> 100	> 100 µM (inactive)	41.3 µM (inactive)
COC(=O)C1(NC(=O)C(Cc2ccccc2)NC(=O)C(NC(=O)C(CCCCNC(=O)OC(C)(C)C)NC(=O)C(Cc2c[nH]c3ccccc23)NC(=O)C(Cc2ccccc2)NC(=O)OCc2ccccc2)C(C)OC(C)(C)C)CCCC1 (stereo unspecified) (Cbz-FWK(Boc)T(tBu)F[Ac5c]-OMe; configuration not given here)	–	> 100 µM (inactive)	> 100 µM (inactive)	> 100 µM (inactive)	> 100 µM (inactive)	> 10 µM (inactive)	> 100 µM (inactive)	18.9 µM (inactive)	> 100 µM (inactive)	93.3 µM (inactive)	> 100 µM (inactive)	34 µM (inactive)	> 100 µM (inactive)	> 100 µM (inactive)	> 100 µM (inactive)	> 100 µM (inactive)	3.96 µM (inactive)	> 100	> 100 µM (inactive)	> 100 µM (inactive)
Cc1nc2ccccc2n1Cc1nnc2n1N=C(c1ccccc1)CS2	27.2 µM (inactive)	32.3 µM (inactive)	36.6 µM (inactive)	33.2 µM (inactive)	35.2 µM (inactive)	43.8 µM (inactive)	32.7 µM (inactive)	32.8 µM (inactive)	40.9 µM (inactive)	> 100 µM (inactive)	27.4 µM (inactive)	25.1 µM (inactive)	64.1 µM (inactive)	27.7 µM (inactive)	18 µM (inactive)	30.1 µM (inactive)	29.2 µM (inactive)	54.8	50.1 µM (inactive)	–
Cc1cc(C)n(C(=O)C(C)Sc2nnc(SC(C)C(=O)n3nc(C)cc3C)s2)n1 (stereo unspecified)	> 100 µM (inactive)	> 100 µM (inactive)	–	> 100 µM (inactive)	> 100 µM (inactive)	> 100 µM (inactive)	> 100 µM (inactive)	> 100 µM (inactive)	> 100 µM (inactive)	> 100 µM (inactive)	> 100 µM (inactive)	> 100 µM (inactive)	> 100 µM (inactive)	> 100 µM (inactive)	> 100 µM (inactive)	> 100 µM (inactive)	> 100 µM (inactive)	> 100	> 100 µM (inactive)	> 100 µM (inactive)
